Where two headings read alike, the source gives them in different places.

Consider ten compounds from US10618913B2, “Macrocycles as PDE1 inhibitors” (H. Lundbeck A/S, priority 2017, dated 2020).

What all share (format): biochemical
For one experiment, the target named is PDE1A (Homo sapiens (Human), UniProt P54750). The experiment can be described thus: PDE1 inhibition assay (SPA, tritium labelled cAMP), PDE1A. To be noted: Table 1, compounds of the invention; 15 nM tritium labelled cAMP.
The next experiment has as its target PDE1B (Homo sapiens (Human), UniProt Q01064). The experiment can be described thus: PDE1 inhibition assay (SPA, tritium labelled cAMP), PDE1B.
The next experiment concerns the target PDE1C (Homo sapiens (Human), UniProt Q14123). As to the kind of experiment: PDE1 inhibition assay (SPA, tritium labelled cAMP), PDE1C. The note with it: Table 1, compounds of the invention; 15 nM tritium labelled cAMP.
Setting [1] is: Table 1, compounds of the invention, 15 nM tritium labelled cAMP, read-out: PDE1B, IC50.

Chain of PDE1A (P54750 whole entry): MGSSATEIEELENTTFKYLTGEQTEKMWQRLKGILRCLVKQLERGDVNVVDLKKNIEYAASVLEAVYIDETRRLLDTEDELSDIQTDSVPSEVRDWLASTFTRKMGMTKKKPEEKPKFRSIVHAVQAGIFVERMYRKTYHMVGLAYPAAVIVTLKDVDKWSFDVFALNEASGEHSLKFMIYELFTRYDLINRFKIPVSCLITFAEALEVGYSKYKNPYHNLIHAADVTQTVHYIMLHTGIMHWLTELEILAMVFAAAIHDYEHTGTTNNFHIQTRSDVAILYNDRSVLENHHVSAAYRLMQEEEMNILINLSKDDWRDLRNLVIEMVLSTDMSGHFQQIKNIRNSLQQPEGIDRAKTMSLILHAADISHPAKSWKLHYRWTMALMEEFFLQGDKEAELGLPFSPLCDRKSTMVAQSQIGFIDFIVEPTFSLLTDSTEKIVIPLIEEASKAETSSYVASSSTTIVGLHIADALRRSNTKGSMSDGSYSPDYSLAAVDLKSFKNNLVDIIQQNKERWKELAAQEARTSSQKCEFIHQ
Chain of PDE1C (Q14123 whole entry): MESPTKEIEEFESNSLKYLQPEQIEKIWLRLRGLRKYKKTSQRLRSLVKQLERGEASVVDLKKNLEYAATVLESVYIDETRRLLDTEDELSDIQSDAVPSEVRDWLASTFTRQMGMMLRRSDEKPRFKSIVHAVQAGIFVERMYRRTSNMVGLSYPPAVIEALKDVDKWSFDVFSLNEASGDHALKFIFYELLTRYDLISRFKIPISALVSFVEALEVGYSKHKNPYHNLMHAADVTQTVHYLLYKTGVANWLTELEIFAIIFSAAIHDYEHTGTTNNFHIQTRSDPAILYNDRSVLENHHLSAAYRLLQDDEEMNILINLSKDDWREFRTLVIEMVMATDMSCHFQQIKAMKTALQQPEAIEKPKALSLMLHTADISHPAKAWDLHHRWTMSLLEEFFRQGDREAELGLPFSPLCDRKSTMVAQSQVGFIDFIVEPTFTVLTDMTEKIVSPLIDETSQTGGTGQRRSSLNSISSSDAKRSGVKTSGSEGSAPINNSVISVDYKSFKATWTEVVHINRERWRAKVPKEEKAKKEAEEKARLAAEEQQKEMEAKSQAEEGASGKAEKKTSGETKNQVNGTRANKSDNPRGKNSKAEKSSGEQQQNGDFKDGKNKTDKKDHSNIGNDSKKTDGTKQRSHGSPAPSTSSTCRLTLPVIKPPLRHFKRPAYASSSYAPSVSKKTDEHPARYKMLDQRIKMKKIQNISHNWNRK
Chain of PDE1B (Q01064 whole entry): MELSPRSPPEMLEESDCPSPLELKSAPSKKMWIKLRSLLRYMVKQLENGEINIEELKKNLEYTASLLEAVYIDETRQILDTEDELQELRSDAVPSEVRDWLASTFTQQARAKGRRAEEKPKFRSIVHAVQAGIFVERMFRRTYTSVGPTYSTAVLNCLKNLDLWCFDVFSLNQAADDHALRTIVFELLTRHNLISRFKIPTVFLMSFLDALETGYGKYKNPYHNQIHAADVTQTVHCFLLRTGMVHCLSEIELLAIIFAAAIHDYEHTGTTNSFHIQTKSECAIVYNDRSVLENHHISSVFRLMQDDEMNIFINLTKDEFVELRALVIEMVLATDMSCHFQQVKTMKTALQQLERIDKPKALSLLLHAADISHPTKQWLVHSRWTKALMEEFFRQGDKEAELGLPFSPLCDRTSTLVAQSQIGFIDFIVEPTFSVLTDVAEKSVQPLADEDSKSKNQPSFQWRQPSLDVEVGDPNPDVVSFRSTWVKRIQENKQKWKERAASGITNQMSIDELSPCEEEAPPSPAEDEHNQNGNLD
Procedure for PDE1A: (§1) Reactions were initiated by addition of the cyclic nucleotide substrate, and reactions were allowed to proceed for 1 hr at room temperature before being terminated through mixing with 20 μL (0.2 mg) yttrium silicate SPA beads (PerkinElmer).
Procedure for PDE1B: as §1
Procedure for PDE1C: Reactions were initiated by addition of the cyclic nucleotide substrate, and reactions were allowed to proceed for 1 hr at room temperature before being terminated through mixing with 20 μL (0.2 mg) yttrium silicate SPA beads (PerkinElmer). The beads were allowed to settle for 1 hr in the dark before the plates were counted in a Wallac 1450 Microbeta counter.

As usually defined, the IC50 is the midpoint of a concentration-inhibition curve. Consider `Cc1nn(C(C)C)c2c3cc(nc12)-c1cccnc1OCCCCOc1ncccc1CN3` [Example 1, 2^1-isopropyl-2^3-methyl-2^1H-6,11-dioxa-3-aza-2(5,7)-pyrazolo[4,3-b]pyridina-1,5(3,2)-dipyridinacycloundecaphane], for which the IC50 against PDE1A amounted to 12 nM; at PDE1B, 1.4 nM; against PDE1C, 20 nM.

As to `Cc1nn(C(C)C)c2c3cc(nc12)-c1cccnc1OCCCCCOc1ncccc1CN3` [Example 2, 2^1-isopropyl-2^3-methyl-2^1H-6,12-dioxa-3-aza-2(5,7)-pyrazolo[4,3-b]pyridina-1,5(3,2)-dipyridinacyclododecaphane], the IC50 at PDE1A is 18 nM; at PDE1B (setting [1]), 1.5 nM; on PDE1C, 54 nM.

As to `Cc1nn(C(C)C)c2c3cc(nc12)-c1cccnc1OCCCOc1ncccc1CN3` [Example 3, 2^1-isopropyl-2^3-methyl-2^1H-6,10-dioxa-3-aza-2(5,7)-pyrazolo[4,3-b]pyridina-1,5(3,2)-dipyridinacyclodecaphane], the IC50 against PDE1A stood at 38 nM; on PDE1B (setting [1]), 4.2 nM; on PDE1C, 69 nM.

Turning to `Cc1nn(C(C)C)c2c3cc(nc12)-c1cccnc1OCCOCCOc1ncccc1CN3` [Example 4, 2^1-isopropyl-2^3-methyl-2^1H-6,9,12-trioxa-3-aza-2(5,7)-pyrazolo[4,3-b]pyridina-1,5(3,2)-dipyridinacyclododecaphane], the results for the IC50 on PDE1A, at PDE1B (setting [1]) and at PDE1C were 2.6 nM, 0.54 nM and 16 nM, respectively.

For `Cc1nn(C(C)C)c2c3cc(nc12)-c1cccnc1OCCCCCn1nccc1CN3` [Example 5, 2^1-isopropyl-2^3-methyl-2^1H,5^1H-11-oxa-3-aza-2(5,7)-pyrazolo[4,3-b]pyridina-1(3,2)-pyridina-5(5,1)-pyrazolacycloundecaphane], the IC50 at PDE1A stood at 25 nM; at PDE1B (setting [1]) it was 4.7 nM; at PDE1C, 80 nM.

With `Cc1nn(C(C)C)c2c3cc(nc12)-c1cccnc1OCCCCOc1cccnc1CN3` [Example 6, 2^1-isopropyl-2^3-methyl-2^1H-6,11-dioxa-3-aza-2(5,7)-pyrazolo[4,3-b]pyridina-1(3,2),5(2,3)-dipyridinacycloundecaphane], the values for the IC50 on PDE1A, at PDE1B (setting [1]) and against PDE1C were 0.47 nM, 0.27 nM and 3.9 nM, respectively.

On to `Cc1nn(C)c2c3cc(nc12)-c1cccnc1OCCCCOc1ncccc1CN3` [Example 7, 2^1,2^3-dimethyl-2^1H-6,11-dioxa-3-aza-2(5,7)-pyrazolo[4,3-b]pyridina-1,5(3,2)-dipyridinacycloundecaphane], for which the figures for the IC50 against PDE1A, on PDE1B (setting [1]) and on PDE1C were 428 nM, 95 nM and 497 nM, respectively.

Consider `CCn1nc(C)c2nc3cc(c21)NCc1cccnc1OCCCCOc1ncccc1-3` [Example 8, 2^1-ethyl-2^3-methyl-2^1H-6,11-dioxa-3-aza-2(5,7)-pyrazolo[4,3-b]pyridina-1,5(3,2)-dipyridinacycloundecaphane], for which the results for the IC50 against PDE1A, on PDE1B (setting [1]) and against PDE1C were 256 nM, 36 nM and 412 nM, respectively.

As for `Cc1nn(C(C)C)c2c3cc(nc12)-c1cccnc1OCCCCn1nccc1CN3` [Example 9, 2^1-isopropyl-2^3-methyl-2^1H,5^1H-10-oxa-3-aza-2(5,7)-pyrazolo[4,3-b]pyridina-1(3,2)-pyridina-5(5,1)-pyrazolacyclodecaphane], the IC50 against PDE1A came out at 53 nM; on PDE1B (setting [1]) it was 15 nM; on PDE1C it was 56 nM.

For orientation: inhibition means the change of the read-out against control, counted positive when it falls. On to `Cc1nn(C(C)C)c2c3cc(nc12)-c1cccnc1OCCCCOc1nccnc1CN3` [Example 10, 2^1-isopropyl-2^3-methyl-2^1H-6,11-dioxa-3-aza-2(5,7)-pyrazolo[4,3-b]pyridina-5(2,3)-pyrazina-1(3,2)-pyridinacycloundecaphane], for which the IC50 against PDE1A was determined as 10 nM; on PDE1C, 17 nM. At PDE1B (read-out: PDE1B, inhibition at 10 μM), the inhibition at 10 µM was above 99%.
